20 compounds from patent publication US20250163038A1, “CBL-B MODULATORS AND USES THEREOF” (Nimbus Clio, Inc., priority 2021, published 2025) can be followed below.

Structures are written as SMILES. Read-outs that look alike come from different tables or passages of the source. Some results are limits rather than exact numbers.

Test [1] deals with Recombinant human Cbl-b (aa 36-427) (Homo sapiens, UniProt Q13191). Kind of test: Cbl-b Biochemical Assay (TR-FRET). As to conditions: read-out: TR-FRET hCbl-b IC50. In general terms: In TR-FRET formats the signal depends on donor and acceptor labels being close together.
Sequence of Recombinant human Cbl-b (aa 36-427) (Q13191 36-427): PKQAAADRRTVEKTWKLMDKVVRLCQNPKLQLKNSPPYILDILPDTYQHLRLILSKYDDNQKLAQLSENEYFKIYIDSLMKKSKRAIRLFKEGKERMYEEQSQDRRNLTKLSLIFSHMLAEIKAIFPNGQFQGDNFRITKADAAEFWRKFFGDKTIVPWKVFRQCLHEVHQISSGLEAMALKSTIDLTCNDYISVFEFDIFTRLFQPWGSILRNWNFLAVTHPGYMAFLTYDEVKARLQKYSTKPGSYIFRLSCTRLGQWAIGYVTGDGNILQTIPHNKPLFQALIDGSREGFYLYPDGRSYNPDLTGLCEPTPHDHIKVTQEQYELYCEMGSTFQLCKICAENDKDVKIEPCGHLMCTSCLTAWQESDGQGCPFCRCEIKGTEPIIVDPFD
The target in test [2] is T1, Recombinant human c-Cbl (aa 47-435) (Homo sapiens, UniProt P22681).
T1 sequence (P22681 47-435): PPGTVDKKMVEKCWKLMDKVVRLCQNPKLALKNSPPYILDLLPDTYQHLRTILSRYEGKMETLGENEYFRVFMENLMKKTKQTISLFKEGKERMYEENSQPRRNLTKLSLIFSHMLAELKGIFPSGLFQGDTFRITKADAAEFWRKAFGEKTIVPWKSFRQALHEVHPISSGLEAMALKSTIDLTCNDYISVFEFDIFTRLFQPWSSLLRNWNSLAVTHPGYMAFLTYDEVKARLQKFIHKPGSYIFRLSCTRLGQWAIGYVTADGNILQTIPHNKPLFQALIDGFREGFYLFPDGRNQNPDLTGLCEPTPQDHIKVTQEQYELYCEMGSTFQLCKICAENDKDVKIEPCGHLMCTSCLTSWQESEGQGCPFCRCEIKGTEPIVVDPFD
Briefly: c-Cbl Biochemical Assay (TR-FRET). As to conditions: hc-Cbl Biochemical Assay (TR-FRET); read-out: TR-FRET hcCbl IC50.

The test system of test [3] is Jurkat (clone E6-1) cells with NFAT luciferase reporter. Briefly: Jurkat reporter assay (NFAT Luciferase). The format is cell-based. The settings on record: Homo sapiens.
Setting [4] is: Jurkat NFAT luciferase reporter cells, anti-CD3 stimulation, 6 hr, read-out: Jurkat NFAT EC50.
[5] abbreviates: Jurkat, 6 h, read-out: Jurkat NFAT EC50 (μM).

For `CN1CCC[C@H](NCc2cc(C(F)(F)F)c3[nH]c(-c4cccc(-c5ccc(F)cc5-c5nncn5C)c4)nc3c2)C1=O` [CC-2, (S)-3-(((2-(4′-Fluoro-2′-(4-methyl-4H-1,2,4-triazol-3-yl)-[1,1′-biphenyl]-3-yl)-7-(trifluoromethyl)-1H-benzo[d]imidazol-5-yl)methyl)amino)-1-methylpiperidin-2-one, formic Acid], the IC50 is less than 200 nM in test [1] and 1000 to 10000 nM in test [2]. In addition, the EC50 in test [3] (setting [4]) was in the range of 1 to 10 µM.
For `COCCNCc1cc(C)c2oc(-c3cc(-c4ccc(F)cc4-c4nncn4C)cc(C4CC4)n3)nc2c1` [AEZ-1, [(2-{6-Cyclopropyl-4-[4-fluoro-2-(4-methyl-1,2,4-triazol-3-yl)phenyl]pyridin-2-yl}-7-methyl-1,3-benzoxazol-5-yl)methyl](2-methoxyethyl)amine], in that order: less than 200 nM, less than 200 nM and less than 0.2 µM.
`Cn1cnnc1-c1cc(C#N)ccc1-c1cc(-c2nc3cc(CNCC4CCC4)ccc3o2)nc(C2CC2)c1` [AEO-1, 4-[2-(5-{[(Cyclobutylmethyl)amino]methyl}-1,3-benzoxazol-2-yl)-6-cyclopropylpyridin-4-yl]-3-(4-methyl-1,2,4-triazol-3-yl)benzonitrile]: the IC50 in test [1] and in test [2] was less than 200 nM each time. The EC50 in test [3] (setting [4]) is less than 0.2 µM.
Regarding `Cc1cc(CN[C@@H]2CCC[C@@H]2O)cc2nc(-c3cc(-c4ccc(F)cc4-c4nncn4C)cc(C4CC4)n3)oc12` [AEU-2, (1S,2R)-2-{[(2-{6-Cyclopropyl-4-[4-fluoro-2-(4-methyl-1,2,4-triazol-3-yl)phenyl]pyridin-2-yl}-7-methyl-1,3-benzoxazol-5-yl)methyl]amino}cyclopentan-1-ol], the concentration for half-maximal inhibition (IC50) in test [1] and in test [2] was less than 200 nM in each case. In addition, the EC50 in test [3] (setting [4]) is less than 0.2 µM.
Consider `Cn1cnnc1-c1cc(F)ccc1-c1cccc(-c2nc3cc(CN[C@@H]4CCC[C@@H]4O)cc(C#N)c3o2)c1` [HH-3, 2-(4′-Fluoro-2′-(4-methyl-4H-1,2,4-triazol-3-yl)-[1,1′-biphenyl]-3-yl)-5-((((1R,2S)-2-hydroxycyclopentyl)amino)methyl)benzo[d]oxazole-7-carbonitrile], for which the IC50 in test [1] and in test [2] was less than 200 nM in each case. The EC50 in test [3] (setting [5]) is less than 0.2 µM.
Consider `Cc1c(F)c(CNCC2(O)CCC2)cc2nc(-c3cc(-c4ccc(F)cc4-c4nncn4C)cc(C4CC4)n3)oc12` [AHJ-1, 1-({[(2-{6-cyclopropyl-4-[4-fluoro-2-(4-methyl-1,2,4-triazol-3-yl)phenyl]pyridin-2-yl}-6-fluoro-7-methyl-1,3-benzoxazol-5-yl)methyl]amino}methyl)cyclobutan-1-ol], for which the IC50 in test [1] and in test [2] was less than 200 nM throughout. In test [3] (setting [4]), the EC50 was less than 0.2 µM.
`Cn1cnnc1-c1cc(F)ccc1-c1cccc(-c2nc3cc(CNS(C)(=O)=O)cc(C(F)(F)F)c3o2)c1` [EC-1, N-((2-(4′-Fluoro-2′-(4-methyl-4H-1,2,4-triazol-3-yl)-[1,1′-biphenyl]-3-yl)-7-(trifluoromethyl)benzo[d]oxazol-5-yl)methyl)methanesulfonamide]: the concentration for half-maximal inhibition (IC50) in test [1] is less than 200 nM; in test [2] it was 200 to 1000 nM. The EC50 in test [3] (setting [4]) is 1 to 10 µM.
`Cn1cnnc1-c1cc(F)ccc1-c1cccc(-c2nc3cc(CNCC4(F)CCC4)cc(C(F)(F)F)c3o2)c1` [HW-2, 1-(2-(4′-Fluoro-2′-(4-methyl-4H-1,2,4-triazol-3-yl)-[1,1′-biphenyl]-3-yl)-7-(trifluoromethyl)benzo[d]oxazol-5-yl)-N-((1-fluorocyclobutyl)methyl)methanamine]: the IC50 in test [1] and in test [2] was less than 200 nM in each case. Besides, the EC50 in test [3] (setting [4]) was in the range of 0.2 to 1 µM.
As for `Cn1cnnc1-c1ccccc1-c1cc(-c2nc3cc(CN4CCC5(CC5)C4)cc(C(F)(F)F)c3[nH]2)nc(C2CC2)c1` [AAS-2, 5-((5-Azaspiro[2.4]heptan-5-yl)methyl)-2-(6-cyclopropyl-4-(2-(4-methyl-4H-1,2,4-triazol-3-yl)phenyl)pyridin-2-yl)-7-(trifluoromethyl)-1H-benzo[d]imidazole], the IC50 in test [1] was less than 200 nM; in test [2], 1000 to 10000 nM. Moreover, the concentration giving a half-maximal response (EC50) in test [3] (setting [4]) lay within 1 to 10 µM.
As to `CN(C)Cc1cc2nc(-c3cc(-c4ccc(F)cc4-c4nncn4C)cc(C4CC4)n3)oc2c(F)c1F` [AHH-3, [(2-{6-cyclopropyl-4-[4-fluoro-2-(4-methyl-1,2,4-triazol-3-yl)phenyl]pyridin-2-yl}-6,7-difluoro-1,3-benzoxazol-5-yl)methyl]dimethylamine], the results for the IC50 in test [1] and in test [2] were less than 200 nM and 200 to 1000 nM, respectively. In addition, in test [3] (setting [5]), the EC50 lay within 1 to 10 µM.
On to `CO[C@@H](C)CNCc1cc(F)c2oc(-c3cc(-c4ccc(F)cc4-c4nncn4C)cc(C4CC4)n3)nc2c1` [AFO-2, [(2-{6-Cyclopropyl-4-[4-fluoro-2-(4-methyl-1,2,4-triazol-3-yl)phenyl]pyridin-2-yl}-7-fluoro-1,3-benzoxazol-5-yl)methyl][(2S)-2-methoxypropyl]amine], for which the IC50 in test [1] and in test [2] was less than 200 nM in each case. For the same compound, the 50% effective concentration (EC50) in test [3] (setting [4]) fell in the range of 0.2 to 1 µM.
With `Cn1cnnc1-c1cc(F)ccc1-c1cccc(-c2nc3cc(CN4C(=O)O[C@H]5CCC[C@H]54)cc(C(F)(F)F)c3o2)c1` [CY-1, (3aR,6aS)-3-((2-(4′-Fluoro-2′-(4-methyl-4H-1,2,4-triazol-3-yl)-[1,1′-biphenyl]-3-yl)-7-(trifluoromethyl)benzo[d]oxazol-5-yl)methyl)hexahydro-2H-cyclopenta[d]oxazol-2-one], the IC50 is less than 200 nM in test [1] and 200 to 1000 nM in test [2]. Further, the EC50 in test [3] (setting [4]) is 1 to 10 µM.
For `Cc1cc([C@H](C)NCC2CCC2)cc2nc(-c3cc(-c4ccc(F)cc4-c4nncn4C)cc(C4CC4)n3)oc12` [AGX-1, (cyclobutylmethyl)[(1S)-1-(2-{6-cyclopropyl-4-[4-fluoro-2-(4-methyl-1,2,4-triazol-3-yl)phenyl]pyridin-2-yl}-7-methyl-1,3-benzoxazol-5-yl)ethyl]amine], in that order: less than 200 nM, less than 200 nM and less than 0.2 µM.
Regarding `Cn1cnnc1-c1cc(F)ccc1-c1cccc(-c2nc3cc(CNCC4(C#N)CCOCC4)cc(C(F)(F)F)c3o2)c1` [DY-1, 4-((((2-(4′-Fluoro-2′-(4-methyl-4H-1,2,4-triazol-3-yl)-[1,1′-biphenyl]-3-yl)-7-(trifluoromethyl)benzo[d]oxazol-5-yl)methyl)amino)methyl)tetrahydro-2H-pyran-4-carbonitrile], the figures for the IC50 in test [1] and in test [2] were less than 200 nM and 200 to 1000 nM, respectively. The EC50 in test [3] (setting [4]) is 0.2 to 1 µM.
For `Cn1cnnc1-c1cc(F)ccc1-c1cccc(-c2nc3cc(CNC[C@@H](O)C(F)(F)F)cc(C(F)(F)F)c3o2)c1` [CR-3, (R)-1,1,1-trifluoro-3-(((2-(4′-fluoro-2′-(4-methyl-4H-1,2,4-triazol-3-yl)-[1,1′-biphenyl]-3-yl)-7-(trifluoromethyl)benzo[d]oxazol-5-yl)methyl)amino)propan-2-ol], in that order: less than 200 nM, less than 200 nM and less than 0.2 µM.
For `COCCCNCc1cc(OC)c2oc(-c3cccc(-c4ccc(F)cc4-c4nncn4C)c3)nc2c1` [FY-1, N-((2-(4′-Fluoro-2′-(4-methyl-4H-1,2,4-triazol-3-yl)-[1,1′-biphenyl]-3-yl)-7-methoxybenzo[d]oxazol-5-yl)methyl)-3-methoxypropan-1-amine], in that order: less than 200 nM, 200 to 1000 nM and 1 to 10 µM.
Regarding `COc1cc(CNC2CCC2)cc2nc(-c3cccc(-c4ccc(F)cc4-c4nncn4C)c3)oc12` [GH-1, N-((2-(4′-Fluoro-2′-(4-methyl-4H-1,2,4-triazol-3-yl)-[1,1′-biphenyl]-3-yl)-7-methoxybenzo[d]oxazol-5-yl)methyl)cyclobutanamine], the IC50 in test [1] was less than 200 nM; in test [2] it was 200 to 1000 nM. The EC50 in test [3] (setting [4]) fell in the range of 0.2 to 1 µM.
For `Cn1cnnc1-c1cc(F)ccc1-c1cc(-c2nc3cc(C4(N)CC4)cc(F)c3o2)nc(C2CC2)c1` [AGN-3, 1-(2-{6-Cyclopropyl-4-[4-fluoro-2-(4-methyl-1,2,4-triazol-3-yl)phenyl]pyridin-2-yl}-7-fluoro-1,3-benzoxazol-5-yl) cyclopropan-1-amine], in that order: less than 200 nM, 200 to 1000 nM and 1 to 10 µM.
As for `C[C@H]1CCC[C@@H](NCc2cc(C(F)(F)F)c3oc(-c4cccc(-c5ccc(F)cc5-c5nncn5C)c4)nc3c2)C1` (racemic) [FV-2, rac-(1R,3S)—N-((2-(4′-fluoro-2′-(4-methyl-4H-1,2,4-triazol-3-yl)-[1,1′-biphenyl]-3-yl)-7-(trifluoromethyl)benzo[d]oxazol-5-yl)methyl)-3-methylcyclohexan-1-amine], the IC50 in test [1] and in test [2] was less than 200 nM in each case. Besides, in test [3] (setting [4]), the EC50 was less than 0.2 µM.
Turning to `Cn1cnnc1-c1cc(F)ccc1-c1cc(-c2nc3cc(CN[C@@H]4CCC[C@@H]4O)cc(C(F)(F)F)c3o2)nc(C2CC2)c1` [ADA-6, (1S,2R)-2-{[(2-{6-Cyclopropyl-4-[4-fluoro-2-(4-methyl-1,2,4-triazol-3-yl)phenyl]pyridin-2-yl}-7-(trifluoromethyl)-1,3-benzoxazol-5-yl)methyl]amino}cyclopentan-1-ol], the IC50 in test [1] and in test [2] was less than 200 nM each time. Moreover, the EC50 in test [3] (setting [4]) is less than 0.2 µM.

The term IC50 denotes the concentration that inhibits the measured activity by half. In general, EC50 refers to the midpoint of the concentration-response curve.
